# Experimental data: patent publication US20130030025A1, “USE OF POTASSIUM CHANNEL BLOCKERS TO TREAT CEREBRAL PALSY” (priority 2011, published 2013)
# Where “and” joins values, the source holds several entries; their conditions need not be identical. Identical values can stand only once. Entries after “also recorded” stand apart in the source; their conditions may differ.
# Columns and labels:
# [1] = typical; (94 ng·mL^−1); cited from earlier work
# [2] = tested on: middle cerebral artery occlusion (MCAO) in rats; experiment: Body swing test (% right swing) after MCAO; type: in vivo, Sprague Dawley rats
# Method: (§1) 4-AP was evaluated for its ability to promote functional sensorimotor improvement following ischemic stroke in rats with stable motor deficits at times remote from their ischemic events. The animal model mimics the conditions in human ischemic stroke and is produced by middle cerebral artery occlusion (MCAO), which results in extensive infarction in cerebral cortex and striatum, including the cortical spinal tract (white matter). In particular, the MCAO model in Sprague Dawley rats that was utilized in the experiments presented below mimics the conditions in human ischemic stroke. In this experiment, Sprague Dawley rats were anesthetized, subjected to a surgery resulting in middle cerebral artery occlusion (MCAO), treated with and without 4-aminopyridine and behavioral assessments were performed as described below. Surgical Procedure: A small focal stroke (infarct) was made on the right side of the surface of the brain (cerebral cortex) by middle cerebral artery occlusion (MCAO). The right side of the head was shaved with electric clippers (patch of approx 3×5 cm between eye and ear). The region was carefully cleaned with septisol. Using aseptic technique, an incision was made midway between the eye and eardrum canal. The temporalis muscle was isolated, bisected, and reflected. A small window of bone was removed via drill and rongeurs (subtemporal craniectomy) to expose the middle cerebral artery (MCA). Care was taken not to remove the zygomatic arch or to transect the facial nerve that would impair the ability of the animal to chew after surgery. […] The MCA was then transected. The temporalis muscle was then repositioned, and the incision was closed subcutaneously with sutures. The skin incision was closed with surgical staples (2-3 required). Throughout the procedure, body temperature was maintained at 37.0°±1° C., using a self-regulating heating pad connected to a rectal thermometer. Dosing: Rats were treated in accordance with the dosing schedule shown in Tables 1A, 1B, and FIG. 2, with each Phase being a two week period of time. A solution of 4-AP was used in this experiment. Dosing was started at 4 weeks after ischemic event. Treatment groups: Dosing was started 4 weeks after pMCAO surgery. During these 4 weeks, weekly behavioral assessments, as defined below, were performed. Two dose levels of 4-AP plus vehicle control were assessed, with treatment starting at 4 weeks after ischemic event. All dosing was via gastric gavage, volume not to exceed 2 mL/kg. Animals were given the first dose and behavioral assessments were performed starting 60 minutes after dosing. Animals then received the second dose that day at the appropriate time and b.i.d (preferably every 12 hours) thereafter for 2 more days (3 total days of dosing, 5 total doses). One hour after the 5th dose, animals were subjected to behavioral assessments as defined below. Following the final behavioral assessment, drug was withdrawn for 10 or 11 days, behavior was re-assessed, and then animals were re-challenged with a cross-over treatment (Phase II of Table 1B) as described in Tables 1A, 1B, followed by the same behavioral testing and dosing regimen. This cross-over was repeated one more time as well (Phase III of Table 1B) (see FIG. 2). Behavioral test details: Behavioral evaluations were done by investigators blinded to treatment assignment. As described above, behavioral assessments were timed exactly with dosing times. Animals were given the first dose, behavioral assessments were performed starting 60 minutes later, and blood was collected 90 minutes after dosing. Animals then received the second dose that day at the appropriate time and b.i.d (preferably every 12 hours) thereafter for 2 more days (3 total days of dosing, 5 total doses). One hour after the 5th dose, animals were subjected to behavioral testing. […]
# [3] = tested on: middle cerebral artery occlusion (MCAO) in rats; experiment: Forelimb placing test after MCAO; type: in vivo, Sprague Dawley rats; parameters: Forelimb Placing Total Score, Mean: scale not given here; conditions: for Forelimb Placing Total Score, Mean: group mean N=15; for Forelimb Placing Total Score: individual animals, 0=normal, 12=maximally impaired
# Method: as §1
smiles,measurement,setting,value
"Nc1ccncc1 [4-AP, 4-aminopyridine]",plasma concentrations obtained in clinical studies,[1],< 1000 nM
same,Body Swing Test (% right Swing),"[2]; Group I, D30, individual animals",33.33% (3×) and 53.33% and 40.00% (2×) and 30.00% and 36.67% (5×) and 43.33% and 26.67% and 46.67%
same,"Body Swing Test (% right Swing), Mean","[2]; Group I, D30, mean of N 15",37.56%
same,Body Swing Test (% right Swing),"[2]; Group I, D32, individual animals",43.33% (2×) and 50.00% (3×) and 53.33% (3×) and 26.67% and 33.33% (3×) and 40.00% (2×) and 30.00%
same,"Body Swing Test (% right Swing), Mean","[2]; Group I, D32, mean of N 15",42.22%
same,Body Swing Test (% right Swing),"[2]; Group I, D44, low dose phase (inferred), individual animals",33.33% (3×) and 56.67% and 43.33% (3×) and 26.67% (2×) and 50.00% and 40.00% (2×) and 46.67% and 30.00% (2×)
same,"Body Swing Test (% right Swing), Mean","[2]; Group I, D44, low dose phase (inferred), mean of N 15",38.44%
same,Body Swing Test (% right Swing),"[2]; Group I, D46, individual animals",36.67% (3×) and 43.33% (4×) and 33.33% (3×) and 30.00% and 53.33% and 20.00% (2×) and 40.00%
same,"Body Swing Test (% right Swing), Mean","[2]; Group I, D46, mean of N 15",36.44%
same,Body Swing Test (% right Swing),"[2]; Group II, D30, individual animals",20.00% and 40.00% and 16.67% and 30.00% and 36.67% and 33.33% (2×) and 23.33% and 53.33% and 26.67%
same,"Body Swing Test (% right Swing), Mean","[2]; Group II, D30, mean of N 15",32.89%
same,Body Swing Test (% right Swing),"[2]; Group II, D32, individual animals",33.33% (5×) and 40.00% and 43.33% (2×) and 30.00% and 46.67%
same,"Body Swing Test (% right Swing), Mean","[2]; Group II, D32, mean of N 15",37.78%
same,Body Swing Test (% right Swing),"[2]; Group II, D58, individual animals",46.67% (3×) and 33.33% (3×) and 26.67% and 40.00% and 43.33% and 50.00%
same,"Body Swing Test (% right Swing), Mean","[2]; Group II, D58, mean of N 15",40.67%
same,Body Swing Test (% right Swing),"[2]; Group II, D60, individual animals",43.33% and 40.00% (2×) and 33.33% (2×) and 46.67% (2×) and 36.67% and 50.00% (2×)
same,"Body Swing Test (% right Swing), Mean","[2]; Group II, D60, mean of N 15",42.67%
same,"Body Swing Test (% right Swing), Mean","[2]; Group III, D44, high dose phase (inferred), mean of N 15",39.56%
same,"Body Swing Test (% right Swing), Mean","[2]; Group III, D46, high dose phase (inferred), mean of N 15",40.44%
same,"Body Swing Test (% right Swing), Mean","[2]; Group III, D58, low dose phase (inferred), mean of N 15",34.89%
same,"Body Swing Test (% right Swing), Mean","[2]; Group III, D60, low dose phase (inferred), mean of N 15",35.11%
same,effect on global body control (body swing test),"[2]; low or high dose, rats after MCAO, reversible and dose-dependent",effective to improve the percentage of rightward over total swings; also recorded: significant improvement
same,"Forelimb Placing Total Score, Mean","[3]; Group I, Phase 1, D30, High 4-AP 2.0 mg/kg b.i.d. p.o., after first dose",3.37
same,"Forelimb Placing Total Score, Mean","[3]; Group I, Phase 1, D32, High 4-AP 2.0 mg/kg b.i.d. p.o., after 5th dose",2.43
same,"Forelimb Placing Total Score, Mean","[3]; Group I, Phase 2, D44, Low 4-AP 0.63 mg/kg b.i.d. p.o., after first dose",2.37
same,"Forelimb Placing Total Score, Mean","[3]; Group I, Phase 2, D46, Low 4-AP 0.63 mg/kg b.i.d. p.o., after 5th dose",2.03
same,"Forelimb Placing Total Score, Mean","[3]; Group II, Phase 1, D30, Low 4-AP 0.63 mg/kg b.i.d. p.o., after first dose",4.20
same,"Forelimb Placing Total Score, Mean","[3]; Group II, Phase 1, D32, Low 4-AP 0.63 mg/kg b.i.d. p.o., after 5th dose",3.43
same,"Forelimb Placing Total Score, Mean","[3]; Group II, Phase 3, D58, High 4-AP 2.0 mg/kg b.i.d. p.o., after first dose",1.90
same,"Forelimb Placing Total Score, Mean","[3]; Group II, Phase 3, D60, High 4-AP 2.0 mg/kg b.i.d. p.o., after 5th dose",1.17
same,"Forelimb Placing Total Score, Mean","[3]; Group III, Phase 2, D44, High 4-AP 2.0 mg/kg b.i.d. p.o., after first dose",2.67
same,"Forelimb Placing Total Score, Mean","[3]; Group III, Phase 2, D46, High 4-AP 2.0 mg/kg b.i.d. p.o., after 5th dose",1.33
same,"Forelimb Placing Total Score, Mean","[3]; Group III, Phase 3, D58, Low 4-AP 0.63 mg/kg b.i.d. p.o., after first dose",2.00
same,"Forelimb Placing Total Score, Mean","[3]; Group III, Phase 3, D60, Low 4-AP 0.63 mg/kg b.i.d. p.o., after 5th dose",1.80
same,Forelimb Placing Total Score,"[3]; Group I, Phase 1, D30 post-MCAO, High 4-AP 2.0 mg/kg b.i.d. p.o., 60 min after first dose",4.50 (4×) and 3.50 (4×) and 4.00 and 5.50 and 3.00 (2×) and 0.50 and 1.00 and 1.50
same,Forelimb Placing Total Score,"[3]; Group I, Phase 1, D32, High 4-AP 2.0 mg/kg b.i.d. p.o., 1 h after 5th dose",3.00 (4×) and 2.00 (3×) and 3.50 (3×) and 2.50 and 0.50 (3×) and 4.00
same,Forelimb Placing Total Score,"[3]; Group I, Phase 2, D44, Low 4-AP 0.63 mg/kg b.i.d. p.o., 60 min after first dose",3.50 (2×) and 1.50 (2×) and 4.00 (4×) and 3.00 (2×) and 2.00 and 0.00 (2×) and 0.50 and 1.00
same,Forelimb Placing Total Score,"[3]; Group I, Phase 2, D46, Low 4-AP 0.63 mg/kg b.i.d. p.o., 1 h after 5th dose",3.50 (2×) and 1.50 (3×) and 3.00 (3×) and 4.00 and 2.50 (2×) and 0.00 (3×) and 1.00
same,Forelimb Placing Total Score,"[3]; Group II, Phase 1, D30, Low 4-AP 0.63 mg/kg b.i.d. p.o., 60 min after first dose",5.50 (3×) and 4.00 (2×) and 3.50 and 5.00 and 4.50 and 1.50 (2×)
same,Forelimb Placing Total Score,"[3]; Group II, Phase 1, D32, Low 4-AP 0.63 mg/kg b.i.d. p.o., 1 h after 5th dose",5.50 and 2.00 (2×) and 4.00 and 5.00 and 3.50 and 4.50 and 1.00 (2×) and 3.00
same,Forelimb Placing Total Score,"[3]; Group II, Phase 3, D58, High 4-AP 2.0 mg/kg b.i.d. p.o., 60 min after first dose",2.50 (2×) and 0.00 (3×) and 1.50 (2×) and 3.00 and 5.00 and 2.00
same,Forelimb Placing Total Score,"[3]; Group II, Phase 3, D60, High 4-AP 2.0 mg/kg b.i.d. p.o., 1 h after 5th dose",1.00 (4×) and 0.00 (4×) and 1.50 and 3.50
same,effect on forelimb function (forelimb placing test),"[3]; low or high dose, 4 weeks post ischemic brain injury, rats, dose-responsive, reversible",effective to improve forelimb function; also recorded: significant improvement
